Measured values taken from the CheMixHub viscosity set.

Test: xn = mol fraction of the nth substance listed

OCCOCCOCCO + O
Details | viscosity [mPa·s]
293.15 K, 100 kPa, x2 = 0.05 | 46.03
293.15 K, 100 kPa, x2 = 0.094 | 44.8
298.15 K, 100 kPa, x2 = 0.014 | 37.14
298.15 K, 100 kPa, x2 = 0.094 | 34.66
298.15 K, 101.33 kPa, x1 = 0.0824 | 3.65
298.15 K, 101.33 kPa, x1 = 0.1678 | 8.7
298.15 K, 101.33 kPa, x1 = 0.35 | 19.77
303.15 K, 100 kPa, x2 = 0.05 | 28.19
303.15 K, 100 kPa, x2 = 0.094 | 27.25
303.15 K, 100 kPa, x2 = 0.112 | 27.95
303.15 K, 101 kPa, x1 = 0.05023 | 2.114
303.15 K, 101 kPa, x1 = 0.1004 | 4.102
303.15 K, 101 kPa, x1 = 0.1518 | 6.604
303.15 K, 101 kPa, x1 = 0.2006 | 9.27
303.15 K, 101 kPa, x1 = 0.2528 | 11.91
303.15 K, 101 kPa, x1 = 0.2995 | 14.77
303.15 K, 101 kPa, x1 = 0.3928 | 18.53
303.15 K, 101 kPa, x1 = 0.5013 | 21.84
303.15 K, 101 kPa, x1 = 0.5995 | 24.34
303.15 K, 101 kPa, x1 = 0.6648 | 25.69
303.15 K, 101 kPa, x1 = 0.7981 | 27.13
303.15 K, 101 kPa, x1 = 0.8445 | 27.86
303.15 K, 101 kPa, x1 = 0.8998 | 28.37
303.15 K, 101 kPa, x1 = 0.954 | 28.74
303.15 K, 101.33 kPa, x1 = 0.0004 | 0.781
303.15 K, 101.33 kPa, x1 = 0.0008 | 0.788
303.15 K, 101.33 kPa, x1 = 0.0014 | 0.798
303.15 K, 101.33 kPa, x1 = 0.0024 | 0.82
303.15 K, 101.33 kPa, x1 = 0.0056 | 0.875
303.15 K, 101.33 kPa, x1 = 0.011 | 0.986
303.15 K, 101.33 kPa, x1 = 0.0317 | 1.48
303.15 K, 101.33 kPa, x1 = 0.0563 | 2.254
303.15 K, 101.33 kPa, x1 = 0.0988 | 4.058
303.15 K, 101.33 kPa, x1 = 0.1954 | 8.931
303.15 K, 101.33 kPa, x1 = 0.2932 | 14.1
303.15 K, 101.33 kPa, x1 = 0.3871 | 18.23
303.15 K, 101.33 kPa, x1 = 0.5032 | 22.21
303.15 K, 101.33 kPa, x1 = 0.5991 | 24.2
303.15 K, 101.33 kPa, x1 = 0.6914 | 26.06
303.15 K, 101.33 kPa, x1 = 0.7941 | 27.17
308.15 K, 100 kPa, x2 = 0.05 | 22.55
308.15 K, 100 kPa, x2 = 0.094 | 21.88
308.15 K, 100 kPa, x2 = 0.112 | 22.44
308.15 K, 101 kPa, x1 = 0.05023 | 1.848
308.15 K, 101 kPa, x1 = 0.1004 | 3.491
308.15 K, 101 kPa, x1 = 0.1518 | 5.543
308.15 K, 101 kPa, x1 = 0.2006 | 7.668
308.15 K, 101 kPa, x1 = 0.2528 | 9.722
308.15 K, 101 kPa, x1 = 0.2995 | 11.99
308.15 K, 101 kPa, x1 = 0.3928 | 14.94
308.15 K, 101 kPa, x1 = 0.5013 | 17.51
308.15 K, 101 kPa, x1 = 0.5995 | 19.48
308.15 K, 101 kPa, x1 = 0.6648 | 20.58
308.15 K, 101 kPa, x1 = 0.7981 | 21.8
308.15 K, 101 kPa, x1 = 0.8445 | 22.32
308.15 K, 101 kPa, x1 = 0.8998 | 22.65
308.15 K, 101.33 kPa, x1 = 0.0004 | 0.707
308.15 K, 101.33 kPa, x1 = 0.0008 | 0.714
308.15 K, 101.33 kPa, x1 = 0.0014 | 0.725
308.15 K, 101.33 kPa, x1 = 0.0024 | 0.736
308.15 K, 101.33 kPa, x1 = 0.0056 | 0.787
308.15 K, 101.33 kPa, x1 = 0.011 | 0.877
308.15 K, 101.33 kPa, x1 = 0.0317 | 1.298
308.15 K, 101.33 kPa, x1 = 0.0563 | 1.934
308.15 K, 101.33 kPa, x1 = 0.0988 | 3.33
308.15 K, 101.33 kPa, x1 = 0.1954 | 7.273
308.15 K, 101.33 kPa, x1 = 0.2932 | 11.27
308.15 K, 101.33 kPa, x1 = 0.3871 | 14.47
313.15 K, 100 kPa, x2 = 0.014 | 19.23
313.15 K, 100 kPa, x2 = 0.05 | 18.39
313.15 K, 100 kPa, x2 = 0.094 | 17.83
313.15 K, 101 kPa, x1 = 0.05023 | 1.618
313.15 K, 101 kPa, x1 = 0.1004 | 3.012
313.15 K, 101 kPa, x1 = 0.1518 | 4.689
313.15 K, 101 kPa, x1 = 0.2006 | 6.418
313.15 K, 101 kPa, x1 = 0.2528 | 8.113
313.15 K, 101 kPa, x1 = 0.2995 | 9.888
313.15 K, 101 kPa, x1 = 0.3928 | 12.22
313.15 K, 101 kPa, x1 = 0.5013 | 14.27
313.15 K, 101 kPa, x1 = 0.5995 | 15.84
313.15 K, 101 kPa, x1 = 0.6648 | 16.75
313.15 K, 101 kPa, x1 = 0.7981 | 17.67
313.15 K, 101 kPa, x1 = 0.8445 | 18.12
313.15 K, 101 kPa, x1 = 0.8998 | 18.44
313.15 K, 101 kPa, x1 = 0.954 | 18.69
318.15 K, 100 kPa, x2 = 0.014 | 15.91
318.15 K, 100 kPa, x2 = 0.05 | 15.2
318.15 K, 100 kPa, x2 = 0.094 | 14.73
318.15 K, 100 kPa, x2 = 0.112 | 15.13
318.15 K, 101 kPa, x1 = 0.05023 | 1.455
318.15 K, 101 kPa, x1 = 0.1004 | 2.621
318.15 K, 101 kPa, x1 = 0.1518 | 4.011
318.15 K, 101 kPa, x1 = 0.2006 | 5.421
318.15 K, 101 kPa, x1 = 0.2528 | 6.753
318.15 K, 101 kPa, x1 = 0.2995 | 8.235
318.15 K, 101 kPa, x1 = 0.3928 | 10.07
318.15 K, 101 kPa, x1 = 0.5013 | 11.79
318.15 K, 101 kPa, x1 = 0.5995 | 13.02
318.15 K, 101 kPa, x1 = 0.6648 | 13.73
318.15 K, 101 kPa, x1 = 0.7981 | 14.53
318.15 K, 101 kPa, x1 = 0.8445 | 14.92
318.15 K, 101 kPa, x1 = 0.8998 | 15.2
318.15 K, 101 kPa, x1 = 0.954 | 15.4
323.15 K, 100 kPa, x2 = 0.014 | 13.33
323.15 K, 100 kPa, x2 = 0.05 | 12.7
323.15 K, 100 kPa, x2 = 0.094 | 12.32
323.15 K, 100 kPa, x2 = 0.112 | 12.64
323.15 K, 101 kPa, x1 = 0.05023 | 1.295
323.15 K, 101 kPa, x1 = 0.1004 | 2.296
323.15 K, 101 kPa, x1 = 0.1518 | 3.473
323.15 K, 101 kPa, x1 = 0.2006 | 4.63
323.15 K, 101 kPa, x1 = 0.2528 | 5.724
323.15 K, 101 kPa, x1 = 0.2995 | 6.927
323.15 K, 101 kPa, x1 = 0.3928 | 8.441
323.15 K, 101 kPa, x1 = 0.5013 | 9.827
323.15 K, 101 kPa, x1 = 0.5995 | 10.84
323.15 K, 101 kPa, x1 = 0.6648 | 11.45
323.15 K, 101 kPa, x1 = 0.7981 | 12.09
323.15 K, 101 kPa, x1 = 0.8445 | 12.41
323.15 K, 101 kPa, x1 = 0.8998 | 12.64
323.15 K, 101 kPa, x1 = 0.954 | 12.8

OCCOCCOCCO + CN(C)C=O
viscosity [mPa·s], 101 kPa
Details | 293.15 K | 298.15 K | 303.15 K | 308.15 K | 313.15 K | 318.15 K
x1 = 0.025 | 1 | 0.933 | 0.868 | 0.847 | 0.768 | 0.727
x1 = 0.0513 | 1.15 | 1.07 | 0.987 | 0.952 | 0.876 | 0.815
x1 = 0.0791 | 1.33 | 1.24 | 1.13 | 1.08 | 0.997 | 0.921
x1 = 0.1085 | 1.54 | 1.42 | 1.31 | 1.22 | 1.15 | 1.05
x1 = 0.1396 | 1.81 | 1.68 | 1.51 | 1.39 | 1.32 | 1.21
x1 = 0.1726 | 2.12 | 1.95 | 1.76 | 1.6 | 1.52 | –
x1 = 0.2077 | 2.53 | 2.3 | 2.07 | 1.85 | 1.76 | –
x1 = 0.245 | 3.02 | 2.74 | 2.44 | 2.16 | 2.06 | –
x1 = 0.2848 | 3.64 | 3.27 | 2.88 | 2.53 | 2.41 | –
x1 = 0.3274 | 4.45 | 3.93 | 3.45 | 3 | 2.85 | –
x1 = 0.373 | 5.37 | 4.74 | 4.12 | 3.55 | 3.33 | –
x1 = 0.422 | 6.64 | 5.77 | 4.96 | 4.25 | 3.96 | –
x1 = 0.4748 | 8.33 | 7.17 | 6.09 | 5.12 | 4.79 | –
x1 = 0.5318 | 10.3 | 8.94 | 7.5 | 6.17 | 5.77 | –
x1 = 0.5935 | 12.9 | 10.9 | 9.08 | 7.6 | 6.92 | –
x1 = 0.6607 | 16.5 | 13.7 | 11.3 | 9.37 | 8.38 | –
x1 = 0.7339 | 21.2 | 17.4 | 14.2 | 11.6 | 10.3 | –
x1 = 0.8141 | 27.4 | 22.2 | 17.9 | 14.4 | 12.8 | –
x1 = 0.9024 | 35.5 | 28.6 | 22.7 | 17.6 | 15.8 | –
